Literature values in US6488962B1, “Tablet shapes to enhance gastric retention of swellable controlled-release oral dosage forms” (DepoMed, Inc., priority 2000, dated 2002).

Details: oral doses administered with or following a meal

Compound: Cc1c(O)cccc1C(=O)N[C@@H](CSc1ccccc1)[C@H](O)CN1C[C@H]2CCCC[C@H]2C[C@H]1C(=O)NC(C)(C)C [nelfinavir]
- area under the plasma concentration-time curve, with or following a meal versus without: two to three times greater
- peak plasma concentration, with or following a meal versus without: two to three times greater
